In patent publication US12404250B2, “PARP inhibitors for treating cancer and asthma” (Oregon Health & Science University, priority 2018, dated 2025):

Assays:
Type in all cases: biochemical
PARP15 cat = molecular target: T1, PARP15 cat (Homo sapiens, UniProt Q460N3); assay: In vitro IC50, PARP15 cat; details: SEM from a minimum of three dose-response experiments
T1 construct: cat-wwe; cat
T1 sequence (Q460N3 482-678 limits assumed): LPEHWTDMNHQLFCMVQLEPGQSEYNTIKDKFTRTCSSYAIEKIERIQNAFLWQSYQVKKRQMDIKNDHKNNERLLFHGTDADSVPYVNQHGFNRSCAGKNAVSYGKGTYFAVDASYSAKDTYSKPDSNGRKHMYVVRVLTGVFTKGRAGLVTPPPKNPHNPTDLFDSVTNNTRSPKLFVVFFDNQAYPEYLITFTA

PARP14 cat-wwe = molecular target: T2, PARP14 cat-wwe (Homo sapiens, UniProt Q460N5); assay: In vitro IC50, PARP14 cat-wwe; details: SEM from a minimum of three dose-response experiments
T2 construct: PARP14 cat-wwe; no borders given for the assay protein
T2 sequence (Q460N5 1523-1801 limits assumed): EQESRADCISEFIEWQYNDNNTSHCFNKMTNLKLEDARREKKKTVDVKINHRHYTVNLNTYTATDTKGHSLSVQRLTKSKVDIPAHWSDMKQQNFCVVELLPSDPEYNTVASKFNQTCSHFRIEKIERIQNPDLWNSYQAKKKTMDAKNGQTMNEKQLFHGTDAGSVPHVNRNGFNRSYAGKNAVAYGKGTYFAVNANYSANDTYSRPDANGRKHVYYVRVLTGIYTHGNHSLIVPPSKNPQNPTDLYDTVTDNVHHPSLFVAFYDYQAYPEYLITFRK

PARP7 = molecular target: T3, PARP7 (Homo sapiens, UniProt Q7Z3E1); assay: In vitro IC50, PARP7; details: SEM from a minimum of three dose-response experiments
T3 sequence (Q7Z3E1 1-657): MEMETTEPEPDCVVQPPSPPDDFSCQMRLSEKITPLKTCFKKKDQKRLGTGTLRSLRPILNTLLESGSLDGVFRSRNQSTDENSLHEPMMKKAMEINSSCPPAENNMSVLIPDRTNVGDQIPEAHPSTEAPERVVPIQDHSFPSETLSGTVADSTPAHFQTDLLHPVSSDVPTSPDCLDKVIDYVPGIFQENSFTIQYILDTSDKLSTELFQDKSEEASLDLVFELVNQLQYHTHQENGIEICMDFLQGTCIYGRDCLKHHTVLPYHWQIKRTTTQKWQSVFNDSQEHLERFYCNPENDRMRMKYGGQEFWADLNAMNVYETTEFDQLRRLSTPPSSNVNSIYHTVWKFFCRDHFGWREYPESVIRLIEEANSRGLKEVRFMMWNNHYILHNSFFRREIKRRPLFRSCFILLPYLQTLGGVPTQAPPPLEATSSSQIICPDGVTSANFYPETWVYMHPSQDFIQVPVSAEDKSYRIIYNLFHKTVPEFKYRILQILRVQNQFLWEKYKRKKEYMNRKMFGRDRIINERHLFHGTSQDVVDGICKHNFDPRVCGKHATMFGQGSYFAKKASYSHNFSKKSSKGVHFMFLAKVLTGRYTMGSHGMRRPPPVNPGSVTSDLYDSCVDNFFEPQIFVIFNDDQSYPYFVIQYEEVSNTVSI

PARP8 = molecular target: T4, PARP8 (Homo sapiens, UniProt Q8N3A8); assay: In vitro IC50, immunoprecipitated GFP-PARP8 auto-MARylation
T4 construct: expressed in transfected cells; host or cells: HEK 293T
T4 sequence (Q8N3A8 1-854): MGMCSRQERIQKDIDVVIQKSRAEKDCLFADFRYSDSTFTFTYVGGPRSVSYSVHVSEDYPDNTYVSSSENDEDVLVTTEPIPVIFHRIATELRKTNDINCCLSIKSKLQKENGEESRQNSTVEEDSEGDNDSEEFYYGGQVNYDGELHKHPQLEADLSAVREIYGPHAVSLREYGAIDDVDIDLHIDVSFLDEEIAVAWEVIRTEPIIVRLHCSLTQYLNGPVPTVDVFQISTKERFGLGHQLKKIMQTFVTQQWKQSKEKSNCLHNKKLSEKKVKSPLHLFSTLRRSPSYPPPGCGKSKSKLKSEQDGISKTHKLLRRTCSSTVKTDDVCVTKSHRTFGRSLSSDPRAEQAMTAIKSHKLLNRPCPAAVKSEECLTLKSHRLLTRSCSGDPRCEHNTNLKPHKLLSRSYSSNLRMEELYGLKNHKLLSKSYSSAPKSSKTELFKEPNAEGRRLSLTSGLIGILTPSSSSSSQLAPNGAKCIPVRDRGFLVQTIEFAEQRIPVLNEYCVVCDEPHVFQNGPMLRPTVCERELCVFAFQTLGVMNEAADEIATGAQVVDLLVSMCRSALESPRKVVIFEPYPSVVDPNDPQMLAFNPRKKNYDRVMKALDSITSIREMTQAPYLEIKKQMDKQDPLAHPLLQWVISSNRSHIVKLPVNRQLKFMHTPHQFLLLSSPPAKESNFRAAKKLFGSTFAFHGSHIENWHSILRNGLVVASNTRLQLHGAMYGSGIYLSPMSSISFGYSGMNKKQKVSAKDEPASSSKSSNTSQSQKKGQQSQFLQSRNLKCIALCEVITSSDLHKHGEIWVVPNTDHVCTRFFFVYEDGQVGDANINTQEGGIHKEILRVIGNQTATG
Description: (§1) Auto-MARylation was analyzed by Western blot with an ADP-ribose (ADPr) binding reagent (uncropped blots shown below).

PARP12 = molecular target: T5, PARP12 (Homo sapiens, UniProt Q9H0J9); assay: In vitro IC50, immunoprecipitated GFP-PARP12 auto-MARylation
T5 construct: expressed in transfected cells; host or cells: HEK 293T
T5 sequence (Q9H0J9 1-701): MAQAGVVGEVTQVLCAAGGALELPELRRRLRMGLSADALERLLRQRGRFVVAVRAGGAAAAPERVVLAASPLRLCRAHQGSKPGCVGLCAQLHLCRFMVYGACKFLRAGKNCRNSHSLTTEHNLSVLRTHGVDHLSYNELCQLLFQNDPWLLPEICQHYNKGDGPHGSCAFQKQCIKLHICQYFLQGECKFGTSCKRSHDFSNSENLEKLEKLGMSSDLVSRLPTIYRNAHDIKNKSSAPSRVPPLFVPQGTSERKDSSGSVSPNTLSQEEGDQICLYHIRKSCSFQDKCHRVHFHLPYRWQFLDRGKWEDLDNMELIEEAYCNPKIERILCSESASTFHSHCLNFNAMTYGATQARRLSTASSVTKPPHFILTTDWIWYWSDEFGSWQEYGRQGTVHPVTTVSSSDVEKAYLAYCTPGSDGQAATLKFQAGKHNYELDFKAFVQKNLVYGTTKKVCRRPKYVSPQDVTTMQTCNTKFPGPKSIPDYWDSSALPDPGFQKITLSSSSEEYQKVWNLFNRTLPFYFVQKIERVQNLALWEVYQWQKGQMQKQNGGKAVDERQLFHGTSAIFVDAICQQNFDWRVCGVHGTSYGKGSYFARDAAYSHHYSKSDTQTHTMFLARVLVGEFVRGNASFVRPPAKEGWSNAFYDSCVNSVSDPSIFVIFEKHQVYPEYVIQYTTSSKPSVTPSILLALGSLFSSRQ
Description: as §1

| Compound | IC50 (PARP15 cat) | IC50 (PARP14 cat-wwe) | IC50 (PARP7) | IC50 (PARP8) | IC50 (PARP12) |
| --- | --- | --- | --- | --- | --- |
| CC#Cc1ccc2c(=O)[nH]c(CSc3ccc(C(=O)O)cc3)nc2c1C [ITK6, 4-(((8-methyl-4-oxo-7-(prop-1-yn-1-yl)-3,4-dihydroquinazolin-2-yl)methyl)thio) benzoic acid] | 496 ± 190 nM | 917 ± 86 nM | 24600 ± 500 nM | > 3000 nM |  |
| CC#Cc1ccc2c(=O)[nH]c(CSc3ncccn3)nc2c1C [ITK7, 8-methyl-7-(prop-1-yn-1-yl)-2-((pyrimidin-2-ylthio)methyl)quinazolin-4(3H)-one] | > 30000 nM | 2860 ± 350 nM | 2460 ± 500 nM | > 3000 nM | > 3000 nM |
